Experiment [1] concerns zebrafish (Danio rerio). Description: Novel dive tank test. The settings on record: 3 min exposure.
For experiment [2], the system named is zebrafish (Danio rerio). Description: Novel aquatic light/dark plus maze test. The format is in vivo. The settings on record: for time frozen in the center of the maze: PETCO San Antonio zebrafish, N = 5-6, controls 81 ± 48 s.
In experiment [3] the test system is zebrafish (Danio rerio). The settings on record: cited from earlier work; for bottom dwelling by zebrafish, effect: another study, ref Bencan, Sledge, & Levin, 2009.
In a further experiment the test system is zebrafish. Conditions: ref Lau et al., 2010; cited from earlier work.
Experiment [4] has as its system zebrafish (Danio rerio). Conditions: 0.05 h, 125 ug/mL.
[5] abbreviates: 25 mg/L, Aquatic Eco-Systems zebrafish, N = 9.
[6] abbreviates: 25 mg/L, PETCO zebrafish, N = 8.
Setting [7] is: 125 mg/L, PETCO zebrafish, N = 4, not significant vs untreated.
Where [8] appears, read: 50 and 100 mg/L, zebrafish from PETCO San Antonio, TX.
[9] abbreviates: nicotine 25 mg/L, AB, WIK, PETCO and GloFish lines.

We go through nine molecules from article PMC2879659 (International journal of comparative psychology / ISCP ; …, 2010).

As for `C[S+](C)[O-]` [DMSO], the “time spent in top 2/3 of dive tank, effect vs controls” value (“time spent … vs controls” for short) with zebrafish (Danio rerio) [1] (0.05% DMSO, PETCO zebrafish) is “no significant anxiolytic effect”. The “total arm entries, effect vs controls” value in the experiment with zebrafish (Danio rerio) [2] (0.05% DMSO, PETCO zebrafish, N = 8) is “significant increase in total arm entries”. Moreover, in the experiment on zebrafish (Danio rerio) [2] (0.05% DMSO, PETCO zebrafish, N = 8, p < 0.05), the “time in white arms, effect vs controls” value is recorded as “spent significantly more time in white arms than untreated controls”.
Regarding `O=C1CC2(CCCC2)CC(=O)N1CCCCN1CCN(c2ncccn2)CC1` [buspirone], in the experiment on zebrafish (Danio rerio) [3], the “bottom dwelling by zebrafish, effect” value was “reduced bottom dwelling”.
Regarding `CNC1=Nc2ccc(Cl)cc2C(c2ccccc2)=[N+]([O-])C1` [chlordiazepoxide], the “time spent on the light side of a tank, effect” value with zebrafish is given as “increased the amount of time zebrafish spent on the light side of a tank”. Besides, the “time spent … vs controls” value in the experiment with zebrafish (Danio rerio) [1] (setting [5]) is reported as “did not differ from untreated control fish”. Further, the “total arm entries, effect” value in the experiment on zebrafish (Danio rerio) [2] (setting [5]) is recorded as “did not differ in total arm entries”. Besides, the “time in the white arms” value in the experiment on zebrafish (Danio rerio) [2] (25 mg/L, Aquatic Eco-Systems zebrafish, N = 9, controls 60 ± 10 s) worked out at 124 ± 25 s. In addition, in the experiment on zebrafish (Danio rerio) [2] (25 mg/L, Aquatic Eco-Systems zebrafish, N = 9, untreated 22 ± 2%), the “white arm entries, % of total entries” value is reported as 36 ± 5%.
Take `CN(C)CCCC1(c2ccc(F)cc2)OCc2cc(C#N)ccc21` (stereo not shown) [citalopram]: the “anxiolytic behaviors in the plus maze” value with zebrafish (Danio rerio) [2] (100 mg/L, Aquatic Eco-Systems zebrafish) is listed as “neither desipramine nor citalopram produced any anxiolytic behaviors in the plus maze”. Besides, the “total arm entries, effect” value with zebrafish (Danio rerio) [2] (100 mg/L, Aquatic Eco-Systems zebrafish, N = 9) is “did not differ in total arm entries”.
Take `CNCCCN1c2ccccc2CCc2ccccc21` [desipramine]: the “time spent in top of dive tank, effect vs untreated” value (from here on “time spent in top … vs untreated”) with zebrafish (Danio rerio) [1] (setting [6]) is recorded as “significantly more time in the top of the dive tank than untreated fish”. The “anxiolytic behaviors in the plus maze” value with zebrafish (Danio rerio) [2] (25 mg/L, PETCO zebrafish) is listed as “neither desipramine nor citalopram produced any anxiolytic behaviors in the plus maze”. The “arm entries, effect vs controls” value with zebrafish (Danio rerio) [2] (setting [6]) was “Neither nicotine nor desipramine exposure had any effect on arm entries”.
Take `CN1C(=O)CN=C(c2ccccc2)c2cc(Cl)ccc21` [diazepam]: the “bottom dwelling by zebrafish, effect” value with zebrafish (Danio rerio) [3] was “reduced bottom dwelling”.
For `CCO` [ethanol], in the experiment on zebrafish (Danio rerio) [1] (0.5% ethanol, PETCO zebrafish, p = 0.08), the “time spent … vs controls” value is listed as “non-significant trend toward zebrafish spending more time in the top 2/3 of the tank”. Further, the “total arm entries, effect vs controls” value in the experiment with zebrafish (Danio rerio) [2] (0.5% ethanol, PETCO zebrafish, N = 7) was “significant increase in total arm entries”. For the same molecule, the “time in white arms” value with zebrafish (Danio rerio) [2] (0.5% ethanol, PETCO zebrafish, N = 7, untreated controls 41 ± 17 s) is 126 ± 20 s.
On to `CN1CCC[C@H]1c1cccnc1` [nicotine], for which the “time spent in top … vs untreated” value with zebrafish (Danio rerio) [1] (setting [6]) is listed as “Neither 25 mg/L nicotine (NIC) nor 0.05% DMSO affected behavior in the dive tank”. In the experiment on zebrafish (Danio rerio) [1] (nicotine 25 mg/L, AB, WIK, PETCO and GloFish lines, 5 min test), the “time spent in top … vs untreated” value is given as “no significant anxiolytic effect”. Besides, the “bottom dwelling in novel dive tanks, effect” value with zebrafish (Danio rerio) [3] (50 and 100 mg/L, previous studies, ref Levin et al., 2007) is “reduced zebrafish bottom dwelling at earlier time points”. The “arm entries, effect vs controls” value in the experiment on zebrafish (Danio rerio) [2] (setting [6]) is recorded as “Neither nicotine nor desipramine exposure had any effect on arm entries”. Further, the “time frozen in the center of the maze” value with zebrafish (Danio rerio) [2] (50 mg/L) is recorded as 9 ± 5 s. Also, the “time frozen in the center of the maze” value in the experiment with zebrafish (Danio rerio) [2] (100 mg/L) came out at 198 ± 46 s. Besides, in the experiment on zebrafish (Danio rerio) [2] (setting [7]), the “% of white entries” value is given as 25 ± 3%, the arm entries was 30 ± 9 entries, the “time frozen in the middle” value was 57 ± 17 s and the “total time spent in white arms” value came out at 56 ± 24 s. For the same molecule, in the experiment with zebrafish (Danio rerio) [2] (setting [8]), the “time spent in white arms, effect” value is “no effect” and the “white arm entries, effect” value was “no effect”. In the experiment on zebrafish (Danio rerio) [2] (setting [9]), the “% white arm entries of total entries, effect” value is “no effect”; the “initial time frozen in centre (latency to enter an arm), effect” value is given as “no influence”; the “time spent in white arms, effect” value is “nor was there an effect”; the “total number of arm entries, effect” value is “no effect”. Also, in the experiment with zebrafish (Danio rerio) [4], the “time at the dive tank top” value stood at 4 ± 4 s.
For the molecule `COC(=O)[C@@H]1[C@H]2C[C@H]3c4[nH]c5ccccc5c4CCN3C[C@@H]2CC[C@@H]1O` [yohimbine], in the experiment with zebrafish (Danio rerio) [1] (setting [5]), the “time spent … vs controls” value is recorded as “did not differ from untreated control fish”. Also, in the experiment with zebrafish (Danio rerio) [2] (setting [5]), the “total arm entries, effect” value is listed as “did not differ in total arm entries”.
